Reference: patent publication US20160199463A1, “HDAC2 DEFENDS VASCULAR ENDOTHELIUM FROM INJURY” (The Johns Hopkins University, priority 2014, published 2016)
“Also recorded” adds a separate entry of the source. Like-named read-outs stand apart in the source and are kept apart here. Numbered stars: 1 amine (or outer) side, 2 acyl side, 3 side chain; on linkers, the order of the positions; unused ones are H or OH. Bridge positions count the residues as written; N and C are the ends. Square brackets hold non-standard residues; d marks the D form. Peptide text beside a SMILES is read from it. I, II: the chains in the order shown. * marks the point of attachment. Actinocin(9to1) = Cc1c2oc3c(C)ccc(C(=O)[*:1])c3nc-2c(C(=O)[*:2])c(N)c1=O; NMeV = CN[C@H](C(=O)O)C(C)C; Cbz = O=C(OCc1ccccc1)*; Sar = CNCC(=O)O

Experiments:
[1] = tested on: aortic rings from Arg2−/− mice; assay: Force tension (wire) myography, vascular relaxation of aortic rings from Arg2-/- mice; format: cell-based, mouse; details: Mus musculus, 18 h; read-out: Emax endothelium-dependent relaxation
Protocol: (§1) Mouse aorta was isolated and cleaned in ice-cold Krebs-Ringer-bicarbonate solution containing the following (in mM): 118.3 NaCl, 4.7 KCl, 1.6 CaCl2, 1.2 KH2 PO4, 25 NaHCO3, 1.2 MgSO4, and 11.1 dextrose. The aorta was immersed in a bath filled with constantly oxygenated Krebs buffer at 37° C. Equal size thoracic aortic rings (2 mm) were mounted using a microscope, ensuring no damage to the smooth muscle or endothelium. One end of the aortic rings was connected to a transducer, and the other to a micromanipulator. Aorta was passively stretched to an optimal resting tension using the micromanipulator, after which a dose of 60 mM KCl was administered, and repeated after a wash with Krebs buffer. After these washes, all vessels were allowed to equilibrate for 20-30 min in the presence of indomethacin (3 μM). Phenylephrine (1 μM) was administered to induce vasoconstriction. A dosedependent response (1 nM to 10 μM), with the muscarinic agonist, ACH or nitric oxide donor, SNP, was then performed as necessary. The responses were repeated in the presence of inhibitors. Relaxation responses were calculated as a percentage of tension following pre-constriction. Sigmoidal dose-response curves were fitted to data with the minimum constrained to 0. Two to four rings were isolated from each animal and the number of animals in each group (n) was 6.

[2] = tested on: aortic rings of wild-type mice; assay: Force tension (wire) myography, vascular relaxation of isolated wild-type mouse aortic rings; format: cell-based; set-up: Emax: dose or concentration left out as unconfirmed; details: for endothelium-independent responses to SNP, dose-dependent vasorelaxation: MGCD0103, MLN4924 or both, FIG. 29B
Protocol: as §1

[3] = tested on: Arg2; assay: Arg2 protein expression in HAECs (Western blot); format: cell-based, human; details: for OxLDL-induced increase in abundance of endothelial arginase: preincubation 8 h, MLN4924 1 μM or MG132 10 μM, then OxLDL 50 μg/mL 24 h; for TSA (1 μmol/L) effect on Arg2 expression in pretreated cells: pretreatment with actinomycin D or cycloheximide (10 μg/mL)
Protocol: (§2) After 48 hrs of HAEC cells transfection, cells were lysed in ice cold RIPA lysis buffer consisting of 20 mM Tris-HCl at pH 7.5, 150 mM NaCl, 1 mM EDTA, 1 mM EGTA, 1% NP40, 1% sodium deoxycholate, 1 mM Na3VO4, 2.5 mM sodium pyrophosphate, 1 mM 3-glycerophosphate, 1 μg/mL leupeptin, and a 1:1000 diluted protease inhibitor cocktail (Sigma). For immunoprecipitation studies, whole cell lysate lysates were centrifuged at 14,000×g and supernatants were precleared by incubation with Protein A/G-agarose beads for 2 h at 4° C. with rocking. Agarose beads were then pelleted by centrifugation at 1,000×g. FLAG-Arg2 in precleared lysates were immunoprecipitated by incubation overnight at 4° C. with rocking following addition of anti-FLAG antibody (10 μl). Immune complexes were eluted in 2×SDS sample buffer by boiling for 5 minutes before loading into SDS-PAGE. Western blotting analysis was performed by transferring the SDS gel onto a PVDF membrane and visualized using secondary antibodies conjugated to alkaline phosphatases.

[4] = tested on: HDAC4, 5, 6, 7, and 8; details: cited from earlier work
[5] = tested on: eNOS; assay: eNOS expression in HAECs (immunoblot); format: cell-based, human; details: 1 μmol/L, 18 hours
Protocol: as §2

[6] = tested on: HDAC; details: cited from earlier work
[7] = tested on: HDAC2; details: low-dose; cited from earlier work
[8] = tested on: NO production in HAECs; assay: Nitric oxide production in HAECs (DAF-DA fluorescence, Siever's NO analyzer); format: cell-based, human; details: TSA 1 μmol/L with ABH (1 μmol/L)
Protocol: (§3) Nitric Oxide levels in HAEC were determined using DAF-DA as per manufacture instructions (Life Sciences). Briefly, cells were loaded with DAF-DA (5 μM) for 20 min and washed 3 times with PBS and incubated for another 30 min in phenol-free media. Fluorescence was determined using a Nikon TE-200 epifluorescence microscope. Images were captured with a Rolera EMC2 camera (Q-Imaging, BC, Canada) with Velocity software (PerkinElmer, Lexington, Mass.). NO production in the cell culture media was also determined by measuring Nitrite levels using a Siever's NO analyzer. NO radicals were measured in cell media collected after 24 hours of treatment using the Oxiselect assay (Cell Biolabs, San Diego, Calif.).

[9] = tested on: calcium-insensitive eNOS in HEK 293 cells; assay: NO radicals in medium of HEK 293 cells expressing calcium-insensitive eNOS (DCFH-DiOxyQ assay); format: cell-based, human; details: TSA together with ABH
Protocol: as §3
Next, the functional consequences of HDAC inhibition on downstream endothelial cell signaling were evaluated. Because eNOS-derived NO plays a central role in endothelial function, eNOS activity was assessed by measuring NO production using 3 different assays. […] HEK 293 cells lack native eNOS expression, but do produce abundant Arg2. Cell medium from 293 cells transfected with a control plasmid (LacZ) was used as a control background signal that was subtracted from all the groups containing calcium-insensitive endothelial nitric oxide synthase.

[10] = tested on: HDAC2; assay: HDAC2 protein expression in HAECs (immunoblot); format: cell-based, human; details: for HDAC2 levels in OxLDL-exposed HAEC: pretreatment 8 h, MLN4924 1 μM or MG132 10 μM, then OxLDL 50 μg/mL 24 h
Protocol: as §2

[11] = tested on: NEDD8; assay: Protein NEDDylation in HAECs (immunoblot, immunoprecipitation); format: cell-based, human; details: HAEC expressing HA-tagged-NEDD8; MLN4924 0, 0.1, 0.3 or 1 μM, dose-dependent
Protocol: FIG. 21A-FIG. 21H is a series of graphs and photographs of immunoblots showing inhibition of NEDDylation by MLN4924 improves OxLDL-mediated vascular endothelial dysfunction via downregulation of Arginase 2. Wire myography was used to measure vasorelaxation with acetylcholine (FIG. 21A, Ach) and sodium nitroprusside (FIG. 21B, SNP) in isolated mice aortas. Conditions included 24 h of OxLDL (50 μg/mL) or control medium preceded by 1 h with either vehicle (DMSO) or MLN4924 (1 μM). […] Note that native (and not transgene) HDAC2 protein levels are shown here. […] Note that “0 μgHA-NEDD8” denotes an empty vector (pcDNA3.1) control. *Indicates p b 0.05 vs control; **indicates p b 0.001; n=6 for vascular reactivity and arginase activity assays.
Densitometry analysis of data from three experiments is shown in top panel. […] Note that “0 μg HA-NEDD8” denotes an empty vector (pcDNA3.1) control. […] Western blots in this figure are representative of 3 independent experiments.

[12] = tested on: arginase activity in HAECs; assay: Arginase activity assay (urea production) in HAEC lysates; format: cell-based, human; details: for OxLDL-induced increase in activity of endothelial arginase: preincubation 8 h, MLN4924 1 μM or MG132 10 μM, then OxLDL 50 μg/mL 24 h
Protocol: HAEC were lysed using RIPA buffer (50 mM of Tris.HCl, pH 7.5, 0.1 mM EDTA, 0.1% Triton X-100, and protease inhibitor), and centrifuged for 30 min at 14,000 g at 4° C. 50 μL (50-100 μg) of supernatant was added to 75 μl of 10 mM MnCl2 made in Tris-HCl (50 mM, pH 7.5) and heat activated by incubating at 55-60° C. for 10 min. 50 μL of L-Arginine that was prepared in 300 mM Tris-HCL, pH 9.7 were then added to the activated cell lysates to achieve final concentrations of 150 mM and incubated at 37° C. for 3 hrs with shaking. The reaction was stopped by adding 400 μL of an acid solution (H2SO4: H3PO4: H20=1:3:7). For colorimetric determination of urea, α-isonitrosopropiophenone (25 μL, 9% in ethanol) was added and further heated at 100° C. for 45 min. Samples were allowed to cool at room temperature in the dark for 10 min and urea concentration was determined by measuring absorbance at 550 nm using a spectrophotometer.

[13] = tested on: Arg2 mRNA; assay: Arg2 mRNA in HAECs (RT-PCR, real-time PCR); format: cell-based, human
Protocol: Total RNA was extracted from segments of mice aortas and HAEC using Trizol and PureLink (Invitrogen). RNA was then reverse transcribed with oligo dT primers to obtain cDNA and quantitative real time PCR (Applied Biosystems) was performed using SYBR Green Supermix mix (Applied Biosystems) whereas semiquantitative RTPCR was performed using conventional Biorad PCR machine and the following primer sets: Real Time PCR data are expressed as “fold change”, which is calculated as 2-ΔΔCt.

[14] = tested on: SIRT; details: cited from earlier work
[15] = MS275 2 μmol/L, CI994 1 μmol/L, MC1568 0.5 μmol/L, PC34051 100 nmol/L, MGCD0103 1 μmol/L

Nc1ccccc1NC(=O)c1ccc(CNc2nccc(-c3cccnc3)n2)cc1 [MGCD0103, Mocetinostat]
Emax at 1 µM [1]: 62.4 ± 16.5%
endothelium-independent responses to SNP, dose-dependent vasorelaxation [2]: no significant differences
Ach response in WT aorta ([2]; MGCD0103 preincubation 48 hours): significant attenuation
Emax ([2]; Mus musculus, 18 h, read-out: Emax endothelial-dependent vascular relaxation (acetylcholine)): 42.7 ± 8.5%
SNP-mediated (endothelium-independent) vasorelaxation versus vehicle-only control ([2]; TSA 200 nmol/L or MGCD0103 1 μmol/L, 18 hours): no significant difference; also recorded: unaffected
endothelial Arg2 expression, class-specific HDAC inhibitors [3]: upregulate
activity to HDAC4, 5, 6, 7, and 8 [4]: selectivity against HDAC2, 3, and 11, and no

O=C(CCCCCCC(=O)Nc1ccccc1)NO [SAHA, Suberoylanilide Hydroxamic Acid]
eNOS expression [5]: negligible effect
HDAC classes blocked [6]: 10 nM; block Class I and Class II HDACs

CC(=O)Nc1ccc(C(=O)Nc2ccccc2N)cc1 [CI994, Tacedinaline]
endothelial Arg2 expression, class-specific HDAC inhibitors [3, 15]: no substantial effects

Cn1c(=O)c2[nH]cnc2n(C)c1=O [theophylline, 1,3-dimethylxanthine]
HDAC2 activity and expression in alveolar macrophages [7]: increases

COc1ccc(Cn2ccc3ccc(C(=O)NO)cc32)cc1 [PCI-34051]
endothelial Arg2 expression, class-specific HDAC inhibitors [3]: no substantial effects; also recorded: slight increase

NC(CCCCB(O)O)C(=O)O (stereo not shown) [ABH, amino-2-borono-6-hexanoic acid]
Emax acetylcholine-mediated vasorelaxation, TSA-treated rings pretreated with ABH ([2]; TSA 200 nmol/L plus ABH (1 mmol/L), n=6): 65.7±12.1%
TSA-induced decrease of NO production on coincubation with ABH [8]: failed to occur
TSA effect on NO production in the presence of ABH [9]: failed to attenuate

NS(=O)(=O)OC[C@@H]1C[C@@H](n2ccc3c(N[C@H]4CCc5ccccc54)ncnc32)C[C@@H]1O [MLN4924]
HDAC2 protein expression in the absence of OxLDL ([10]; MLN4924 0, 0.1, 0.3 or 1 μM): robust dose-dependent increase
HDAC2 levels in OxLDL-exposed HAEC [10]: rescued
endothelium-independent responses to SNP, dose-dependent vasorelaxation [2]: no significant differences
endothelial function (acetylcholine dose response) in OxLDL-exposed aortas ([2]; MLN4924 1 μM 1 h before OxLDL 50 μg/mL 24 h): Substantial rescue
Ach response in WT aorta ([2]; MLN4924 1.0 μM pretreatment): did not cause any significant changes
vascular endothelial dysfunction induced by MGCD0103 ([2]; MLN4924 1.0 μM together with MGCD0103): did not reverse
endothelial-dependent vascular relaxation, compound alone ([2]; MLN4924 1 μM without OxLDL): negligible effect
endothelial-independent vascular relaxation (sodium nitroprusside) ([2]; OxLDL 50 μg/mL 24 h, MLN4924 1 μM): unaffected
quantity of NEDDylation conjugates [11]: attenuated
OxLDL-induced increase in abundance of endothelial arginase [3]: abolished
arginase activity in the absence of OxLDL ([12]; MLN4924 1 μM): decreased
OxLDL-induced increase in activity of endothelial arginase [12]: abolished

O=C(CCCCCN1C(=O)c2cccc3cccc(c23)C1=O)NO [Scriptaid]
eNOS expression [5]: negligible effect
Arg2 expression, broad-spectrum HDAC inhibitors ([3]; 1 μmol/L, 18 hours): upregulated

Cc1c2oc3c(C)ccc(C(=O)N[C@@H]4C(=O)N[C@H](C(C)C)C(=O)N5CCC[C@H]5C(=O)N(C)CC(=O)N(C)[C@@H](C(C)C)C(=O)O[C@@H]4C)c3nc-2c(C(=O)N[C@@H]2C(=O)N[C@H](C(C)C)C(=O)N3CCC[C@H]3C(=O)N(C)CC(=O)N(C)[C@@H](C(C)C)C(=O)O[C@@H]2C)c(N)c1=O [actinomycin D] (I: T[dV]P[Sar][NMeV] / II: T[dV]P[Sar][NMeV]; ester I:1-I:C, II:1-II:C; linker I:N-II:N via Actinocin(9to1))
OxLDL-induced rise in Arg2 mRNA levels ([13]; with Actinomycin D): ablated
TSA (1 μmol/L) effect on Arg2 expression in pretreated cells [3]: failed to increase

CC(C)C[C@@H](C=O)NC(=O)[C@H](CC(C)C)NC(=O)[C@H](CC(C)C)NC(=O)OCc1ccccc1 [MG132] (Cbz-Leu-Leu-Leu-aldehyde)
decrease of HDAC2 levels by HA-NEDD8 expression ([10]; MG132 10 μM, 8 h): abolished
HDAC2 levels in OxLDL-exposed HAEC [10]: rescued
OxLDL-induced increase in abundance of endothelial arginase [3]: abolished
OxLDL-induced increase in activity of endothelial arginase [12]: abolished

NC(=O)c1cccnc1 [Nicotinamide]
Arg2 mRNA expression ([13]; nicotinamide 0.1 or 0.2 mmol/L, 18 hours): No changes
Arg2 mRNA levels ([13]; nicotinamide (5 mmol/L) as printed): no effect
IC50 [14]: < 50 µM
Arg2 protein levels ([3]; nicotinamide 5 mmol/L): no effect
HAEC arginase activity, short-term ([12]; 30 minutes, nicotinamide 5 mmol/L, TSA 1 μmol/L): activating effect

Nc1ccccc1NC(=O)c1ccc(CNC(=O)OCc2cccnc2)cc1 [MS275, Entinostat]
endothelial Arg2 expression, class-specific HDAC inhibitors [3, 15]: no substantial effects

C[C@@H]1C[C@@H]([C@H](O)CC2CC(=O)NC(=O)C2)C(=O)[C@@H](C)C1 [cycloheximide]
TSA (1 μmol/L) effect on Arg2 expression in pretreated cells [3]: failed to increase
OxLDL-induced peak in Arg2 protein levels ([3]; with cycloheximide): ablated
